Measurements: the OligoGym collection
After the bases stand the sugars from the 5' end (letter, count) and the backbone: PS all phosphorothioate, else s phosphorothioate and o phosphodiester by linkage. Methylation of C is not given here. l = locked nucleic acid (LNA); d = 2'-deoxy (DNA)

Biological target: SNHG14
Conditions: ASO
[1] = Mouse Primary Neuronal Cell, 0.005 µM

Sequence	target mRNA inhibition (Human Neuronal Cell, 7.5 µM) [%]	target mRNA inhibition (Human Neuronal Cell, 0.2 µM) [%]	target mRNA inhibition (Human Neuronal Cell, 1 µM) [%]	other results
ATATTGATTCAATTCCC (sugars l1 d1 l3 d10 l2, PS)	70	–	–	–
CTGTATACACCATCCCA (sugars ldddlddddddddldll, PS)	68	–	–	–
GAAAATCTCAACTACCATT (sugars llddldddddddlddddll, PS)	52	–	–	–
CAACATTATTAACCACCTTA (sugars l4 d10 l1 d2 l3, PS)	55	–	–	–
GACCACACTTTCTACCA (sugars l2 d13 l2, PS)	–	27	48	–
TATTGATTCAATTCCCT (sugars l3 d9 l2 d1 l2, PS)	65	–	–	–
AAGAAACACCCTTCCA (sugars l2 d10 l4, PS)	–	40	54	–
TTCTGTATACACCATCC (sugars lddlddddddddlddll, PS)	60	–	–	–
TGTTTCCATCTACTATTA (sugars l1 d4 l1 d8 l4, PS)	67	–	–	–
TTACTCTGCAATACAC (sugars l3 d10 l3, PS)	–	46	61	–
ATCTTTCCATTTATTTCCA (sugars ldddlddddddddldddll, PS)	42	–	–	–
GACCTCAATACTCTACT (sugars l3 d11 l3, PS)	–	49	58	–
TTATACCTTTCTTTAACCCT (sugars ldldddldddddddddddll, PS)	64	–	–	–
GCATTAGGCACATTACAT (sugars l3 d12 l3, PS)	–	-8	2	target mRNA inhibition (Human Neuronal Cell, 5 µM): 15%
TTCTGTATACACCATCCC (sugars l1 d11 l1 d3 l2, PS)	54	–	–	–
TAGTCCTTCCTTTAACC (sugars l2 d13 l2, PS)	–	20	16	–
TTATACCTTTCTTTAACCCT (sugars ldddddddddddddldldll, PS)	58	–	–	–
CTAATGCAATAACCCA (sugars l2 d10 l4, PS)	–	45	34	–
ATTGATTCAATTCCCTT (sugars l3 d10 l1 d1 l2, PS)	70	–	–	–
AGTTCTACTATACTTTCC (sugars l1 d4 l1 d10 l2, PS)	49	–	–	–
ACCTGTAATACTTCTT (sugars l4 d10 l2, PS)	–	48	46	–
TTATAGCCATTCTATCT (sugars ldldddddddddlldll, PS)	45	–	–	–

Sequence	target mRNA inhibition (Human Neuronal Cell, 7.5 µM) [%]	target mRNA inhibition (Human Neuronal Cell, 0.2 µM) [%]	target mRNA inhibition (Human Neuronal Cell, 1 µM) [%]	other results
AACTCTCACTGTAACT (sugars l4 d10 l2, PS)	–	41	53	–
TGTATATAACTATTCC (sugars l4 d10 l2, PS)	–	21	20	–
TATCTCATGACCACCTA (sugars l2 d12 l3, PS)	–	43	52	–
TTGTCTCTAATCCTAT (sugars l2 d10 l4, PS)	–	38	54	–
CATGACACTTACATAA (sugars l3 d10 l3, PS)	–	31	45	–
TCTTATCCTTGAATTTC (sugars l4 d11 l2, PS)	–	37	33	–
GTTTATACCCTTTCCAAT (sugars l1 d13 l4, PS)	59	–	–	–
ACCAATTATACTTACAA (sugars l3 d11 l3, PS)	–	21	52	–
GTTCTACTATACTTTCCT (sugars lldldlddddddddddll, PS)	63	–	–	–
TCTTCAAGAATTCTCT (sugars l2 d10 l4, PS)	–	44	46	–
ATCCTGTTAATACCAT (sugars l2 d10 l4, PS)	–	45	39	–
CCTACATCTCATACTTGC (sugars l3 d12 l3, PS)	–	-39	-21	target mRNA inhibition (Human Neuronal Cell, 5 µM): -27%
CCTTAATCTGTATCAC (sugars l3 d10 l3, PS)	–	38	52	–
TTTATTTCCATTTATTTTC (sugars lllddldddddddllldll, PS)	51	–	–	–
AGCATTCAACCCTAATC (sugars l4 d11 l2, PS)	–	52	50	–
AATTATTTATACACCATCAT (sugars lllddllddddddldlldll, PS)	56	–	–	–
CTCATTTACATTATTATT (sugars l4 d12 l2, PS)	–	34	44	–
AGTTCTACTATACTTTCC (sugars l1 d15 l2, PS)	11	–	–	–
TTTTATACCTTTCTTTAACC (sugars l1 d15 l1 d1 l2, PS)	24	–	–	–
TTTTTTCTTACTATCTTCAA (sugars ldddddldddddddllddll, PS)	43	–	–	–
TTGATTCAATTCCCTTA (sugars lddlldddddddlldll, PS)	66	–	–	–
TTCTGTATACACCATCCC (sugars l1 d15 l2, PS)	58	–	–	–

Sequence	target mRNA inhibition (Human Neuronal Cell, 7.5 µM) [%]	target mRNA inhibition (Human Neuronal Cell, 0.2 µM) [%]	target mRNA inhibition (Human Neuronal Cell, 1 µM) [%]	other results
ATAAGCTTACCTCATA (sugars l2 d10 l4, PS)	–	62	68	–
ACTGTTTATACCCTTTC (sugars ldddlddddddddldll, PS)	55	–	–	–
GTTTATACCCTTTCCAAT (sugars ldlldddddddddldlll, PS)	63	–	–	–
ACTGTTTATACCCTTTCC (sugars l1 d11 l1 d3 l2, PS)	56	–	–	–
CTGTATACACCATCCCA (sugars l1 d3 l1 d10 l2, PS)	65	–	–	–
CCATTTATTTCCATTTATTT (sugars ldddldddddddddldldll, PS)	56	–	–	–
CTTTCCATTTATTTCCAT (sugars l3 d12 l3, PS)	–	43	51	–
ATCTCATGACCACCTAA (sugars ldlllddddddddldll, PS)	66	–	–	–
CCTACATCTCATACTTG (sugars l3 d11 l3, PS)	–	–	–	target mRNA inhibition [1]: 96%
GTTTCCATCTACTATTAA (sugars ldddlldddddddlldll, PS)	53	–	–	–
TTTCCATTTATTTCCATTTA (sugars lddlddlddddddddlddll, PS)	61	–	–	–
CCTACATCTCATACTTG (sugars l2 d13 l2, PS)	–	9	10	target mRNA inhibition (Human Neuronal Cell, 5 µM): 36%; target mRNA inhibition [1]: 79.8%
TTGATTCAATTCCCTTA (sugars lldlddddddddlddll, PS)	63	–	–	–
CTCATCCCTCCAAGAAA (sugars l4 d11 l2, PS)	–	-3	-15	target mRNA inhibition (Human Neuronal Cell, 5 µM): -9%; target mRNA inhibition [1]: 90.9%
TGTTTATACCCTTTCCAA (sugars l2 d2 l1 d11 l2, PS)	64	–	–	–
ATACACAGCACATATT (sugars l2 d10 l4, PS)	–	29	43	–
TTTATTTCCATTTATTTTC (sugars ldldlddddddddlldlll, PS)	53	–	–	–
TCACCTAATAGCACCA (sugars l2 d10 l4, PS)	–	60	69	–
TTTACACTTAATTATACTTC (sugars llldlddddddddlddllll, PS)	55	–	–	–
TATCTTTCCATTTATTTCC (sugars l2 d12 l1 d2 l2, PS)	44	–	–	–
CTGCTTAATTATATCA (sugars l4 d10 l2, PS)	–	35	38	–
ACACATTATATTTAAACTA (sugars l3 d13 l3, PS)	–	8	-2	–

Sequence	target mRNA inhibition (Human Neuronal Cell, 7.5 µM) [%]	target mRNA inhibition (Human Neuronal Cell, 0.2 µM) [%]	target mRNA inhibition (Human Neuronal Cell, 1 µM) [%]	other results
TTCTACTATACTTTCCTCT (sugars ldldddddddddddlddll, PS)	59	–	–	–
TGTTTATACCCTTTCCAA (sugars l1 d1 l2 d12 l2, PS)	63	–	–	–
TATTGATTCAATTCCCT (sugars l1 d12 l4, PS)	57	–	–	–
TACATCTCATACTTGC (sugars l2 d11 l3, PS)	–	–	–	target mRNA inhibition [1]: 96.5%
CACATTATATTTAAACTAT (sugars l2 d13 l4, PS)	–	6	14	–
TCCATTTATTTCCATTTAT (sugars ldlldddddddddldddll, PS)	50	–	–	–
TATCTTTCCATTTATTTCC (sugars l1 d2 l1 d13 l2, PS)	41	–	–	–
AAAATTATTTATACACCATC (sugars lldddllddddddllldlll, PS)	63	–	–	–
ATTCAACCCTAATCAC (sugars l2 d10 l4, PS)	–	16	26	–
GATCATTCTCAACAATTA (sugars l2 d1 l2 d8 l5, PS)	26	–	–	–
TTTGACATTCCATCTCC (sugars l2 d12 l3, PS)	–	38	55	–
ATGCTTCTAACTAACA (sugars l4 d10 l2, PS)	–	25	46	–
CTCTTTAGATTCATCC (sugars l4 d10 l2, PS)	–	56	48	–
CCTTCCCTTTGATAACA (sugars l2 d12 l3, PS)	–	43	62	–
TTATAGCCATTCTATCT (sugars ldddlddddddldllll, PS)	26	–	–	–
AACATGTAATTTCCAT (sugars l2 d10 l4, PS)	–	31	27	–
TACTCTGCAATACACCA (sugars l2 d10 l1 d2 l2, PS)	61	–	–	–
ATTGATTCAATTCCCTT (sugars lddlldddddddlldll, PS)	59	–	–	–
TAATCCCATACATCTAT (sugars l2 d11 l4, PS)	–	50	61	–
TTATCATTTCATATTACT (sugars l4 d12 l2, PS)	–	16	34	–
ACATGTCCCTTTATATT (sugars l4 d11 l2, PS)	–	-15	-4	target mRNA inhibition (Human Neuronal Cell, 5 µM): 9%; target mRNA inhibition [1]: 83.7%
